These results are taken from patent US20020192223A1 (priority 1989, published 2002).

Data set [1] can be described thus: Solubility of the hydrazone during conjugation. The class given is physicochemical. To be noted: PBS. The method, then:
3. The solution is transferred back to a round bottom flask equipped with a magnetic stirrer and kept in ice. The solution continuously is blanketed by nitrogen. The volume of the solution is noted. […] A solution of maleimidocaproyl hydrazone of adriamycin in distilled water (5 mg/mL, 6.3×10^−3 M) is prepared (notes 7, 8). The amount (in mL) of this solution needed for the conjugation is determined by the formula: [formula]
10. Brief applications of a sonicator will facilitate dissolution in distilled water. The resulting solution is stable.

The subject of data set [2] is L2987 lung tumor xenografts. As to the kind of experiment: BR96-DOX against established subcutaneous xenografts. The format is in vivo, athymic mice. The protocol: Athymic rats were transplanted subcutaneously with human lung adenocarcinoma L2987, colon carcinoma RCA, or breast carcinoma MCF7 and permitted to grow. […]
(§1) Mice and rats were administered with BR96-DOX by three injections, each injection being about four days apart. Mice which were injected intraperitoneally (IP) were given 20 mg/kg of BR96-DOX. Mice which were injected intravenously were given 10 mg/kg of BR96. Intravenous (IV) injection involved less volume of BR96 because of the constraints of injection volume, namely, only 10 mg/kg was administrable by IV.
(§2) Controls One set of controls included untreated mice and mice that received (1) DOX (at doses optimized to produce maximal antitumor activity in each model); (2) unconjugated BR96; (3) mixtures of BR96 and DOX; and (4) DOX conjugated to either normal human IgG or the control MAb SN7. Doses of DOX and MAb are presented as mg/kg/[…].
(§3) Treatment with BR96-DOX consistently cured most mice bearing L2987 (FIG. 46A) or RCA (FIG. 46B) tumors. […] Complete tumor regression (CR) refers to a tumor that for a period of time is not palpable. Partial tumor regression (PR) means a decrease in tumor volume to ≦50% of the initial tumor volume.

Data set [3] relates to RCA colon carcinoma xenografts. The data set is described as above. The class given is in vivo, athymic mice. The method, then:
(§4) Athymic rats were transplanted subcutaneously with human lung adenocarcinoma L2987, colon carcinoma RCA, or breast carcinoma MCF7 and permitted to grow. Therapy (3 treatments 4 days apart) started 14 to 28 days after tumor transplantation when tumors were well established, i.e., when the tumors were 50 to 100 mm^3 in size.
as §1, §2, §3

For data set [4], the system named is L2987 spheroids inoculated IV. As to the kind of experiment: BR96-DOX against large disseminated tumors. The class given is in vivo, athymic mice. The settings on record: DOX 8 mg/kg. The text has this: L2987 lung carcinoma cells were selected in vitro for the ability to grow as multicellular spheroids. When injected IV into athymic mice or rats, tumors developed at various sites, including lymph nodes, lung, spleen, liver, brain, subcutaneously, and ascites was formed in some animals.
Mice were inoculated IV with L2987 spheroids.
The burden of disseminated disease in these animals was so far advanced that 50% of control animals died during the first 6 days of the experiment. […] Surviving mice were sacrificed 200 days after cell inoculation and sections of lung, lymph nodes, spleen, colon, jejunum, kidney, liver, brain, and heart were examined by histology.

Data set [5] concerns L2987 human lung carcinoma, subcutaneous. As to the kind of experiment: BR96-DOX against human lung tumors implanted in rats. The class given is in vivo, athymic Rowett rats.
Description: Athymic mice and athymic Rowett rats (Harlan Sprague Dawley) were used in this study.
as §4
Another set included rats using the protocol used in control mice.

For the next data set, the system named is parental cell line. As to the kind of experiment: In vitro 3[H]-thymidine incorporation IC50. The class given is cell-based. A general note: Dividing cells build labelled thymidine or BrdU into new DNA.
Data set [6] has as its system cells obtained from tumors that grew back after BR96-DOX induced regression. As to the kind of experiment: In vitro 3[H]-thymidine incorporation IC50. The format is cell-based. The settings on record: treatment (regrown tumor cells).
Data set [7] in a line: Maximum tolerated dose, 3 injections 4 days apart. The format is in vivo, mice. The settings on record: equivalent DOX dose. The method, then:
The maximum tolerated dose (MTD) (equivalent DOX dose) of the BR96-DOX conjugate (administered as 3 injections 4 days apart) was 20 mg/kg administered intraperitoneally (IP). When administered intravenously (IV) the MTD was ≧10 mg/kg. This was the maximum dose that could be administered IV because of the constraints of injection volume.
The MTD of unconjugated DOX (8 mg/kg IV and 4 mg/kg IP) was lower than that of the BR96-DOX conjugate. Unconjugated DOX administered IV at the MTD produced a delay in tumor growth but no tumor regressions and if the dose was reduced to 50% of the MTD, DOX had no effect.

Data set [8] relates to L2987 human lung tumor xenografts. As to the kind of experiment: Test V in vivo activity of relaxed BR64 and L6 conjugates. On the set-up: species or system BALB/c nu/nu mice. To be noted: optimized doses of adriamycin. The protocol: The in vivo antitumor activity of immunoconjugates of adriamycin and relaxed BR64 or relaxed L6 was evaluated.
Congenitally athymic female mice of BALB/c background (BALB/C nu/nu; Harlan Sprague-Dawley, Indianapolis, Ind.) were used. Mice were housed in Thoren caging units on sterile bedding with controlled temperature and humidity. Animals received sterile food and water ad libitum.
The L2987 human tumor line was established as tumor xenograft models in athymic mice. The tumor line was maintained by serial passage in vivo. Tumors were measured in 2 perpendicular directions at weekly or biweekly intervals using calipers. Tumor volume was calculated according to the equation: [formula]
In general, there were 8-10 mice per control or treatment group. Data are presented as median tumor size for control or treated groups. Antitumor activity is expressed in terms of gross log cell kill (“LCK”) where: [formula] […]
For animals bearing the L2987 human lung tumor, therapy was typically initiated when the median tumor size was 75 mm^3(12-14 days after tumor implant). The average TVDT was 4.8±0.9 days and antitumor activity was assessed at a tumor size of 500 mm^3. […]
Materials under investigation were administered by the ip or iv route. […] Compounds were administered on a mg/kg basis calculated for each animal, and doses are presented as mg/kg of equivalent adriamycin/injection. […]

The test system is the same in data set [9]. As to the kind of experiment: Test VI in vivo activity of ChiBR96-ADM conjugates. More on the design: species or system athymic mice. From the text:
(§5) In general, there were 8-10 mice per control or treatment group. Data are presented as median tumor size for control or treated groups. Antitumor activity is expressed in terms of gross log cell kill (“LCK”) where: [formula]
(§6) T−C is defined as the median time (days) for treated tumors to reach target size minus the median time for control tumors to reach target size and TVDT is the time (days) for control tumors to double in volume (250-500 mm^3). Partial tumor regression (“PR”) refers to a decrease in tumor volume to ≦50% of the initial tumor volume; complete tumor regression (“CR”) refers to a tumor which for a period of time is not palpable; and cure is defined as an established tumor which is not palpable for a period of time ≧10 TVDTs.
(§7) Materials under investigation were administered by the ip or iv route. Adriamycin was diluted in normal saline; antibody and antibody/adriamycin conjugates were diluted in phosphate buffered saline. Compounds were administered on a mg/kg basis calculated for each animal, and doses are presented as mg/kg of equivalent adriamycin/injection. Immunoconjugates were administered on a q4dx3 schedule.
(§8) The antitumor activity of ChiBR96-ADM conjugates was evaluated against established human lung (“L2987”), breast (“MCF7,” obtainable from the ATCC under the accession number ATCC HTB 22; see also I. Hellström, et al., Cancer Research 50:2183 (1990)), and colon (“RCA” from M. Brattain, Baylor University; see also I. Hellström, et al., Cancer Research 50:2183 (1990)) tumors.
(§9) Animals were maintained and tumor xenograft models were established for the MCF7 and RCA and the L2987 human tumor lines as described for the L2987 in Test V. Materials were administered as described in Test V.
For animals bearing the L2987 human lung tumor, therapy typically was initiated when the median tumor size was 75 mm^3 (12-14 days after tumor implant). The average TVDT was 4.8±0.9 days and antitumor activity was assessed at a tumor size of 500 mm^3. In several experiments therapy was initiated when L2987 tumors were 225 mm^3 in size.

Data set [10] deals with MCF7 human breast tumor xenografts. As to the kind of experiment: Test VI in vivo activity of ChiBR96-ADM conjugates. On the set-up: species or system athymic mice. The settings on record: ADM 6 mg/kg, iv.
Description: as §5, §6, §7, §8, §9
The MCF7 tumor is an estrogen-dependent human breast tumor line. Athymic mice were implanted with 0.65 mg (65 day release rate) estradiol pellets (Innovative Research of America, Toledo, Ohio) on the day of tumor implant. Therapy was initiated when the median tumor size was 100 mm^3 (typically 13 days after tumor implant).

The subject of data set [11] is RCA human colon tumor xenografts. As to the kind of experiment: Test VI in vivo activity of ChiBR96-ADM conjugates. On the set-up: species or system athymic mice.
Description: as §5, §6, §7, §8, §9
For animals bearing the RCA colon tumor, therapy was initiated 15 days after tumor implant when the median tumor size was 75 mm^3. The average TVDT for RCA tumor xenografts was 9.5±1.5 days and antitumor activity was assessed at 400 mm^3.

For the molecule `COc1cccc2c1C(=O)c1c(O)c3c(c(O)c1C2=O)C[C@@](O)(/C(CO)=N/NC(=O)CCCCCN1C(=O)C=CC1=O)C[C@@H]3O[C@H]1C[C@H](N)[C@H](O)[C@H](C)O1` [hydrazone, Maleimidocaproylhydrazone of Adriamycin], the solubility result in data set [1] was “not very soluble in PBS”.
A word on the IC50: it is the midpoint of a concentration-inhibition curve. On to `COc1cccc2c1C(=O)c1c(O)c3c(c(O)c1C2=O)C[C@@](O)(C(=O)CO)C[C@@H]3O[C@H]1C[C@H](N)[C@H](O)[C@H](C)O1` [Adriamycin, adriamycin], for which the “tumor regressions: Complete” value in [2] (L2987, q4dx3, DOX 8.0, no MAb) was 0%; in data set [3] (RCA, q4dx3, DOX 8.0, no MAb) it was 0%; in data set [3] (mouse, in vivo) it was 0%. Also, the “tumor regressions: Cures” value in [2] (L2987, q4dx3, DOX 8.0, no MAb) was 0%; in [3] (RCA, q4dx3, DOX 8.0, no MAb) it was 0%; in [3] (mouse, in vivo), 0%. The “tumor regressions: Partial” value is reported as 0.8 ± 0.8% in data set [2] (L2987, q4dx3, DOX 8.0, no MAb); 0% in data set [3] (RCA, q4dx3, DOX 8.0, no MAb); 0% in [3] (mouse, in vivo). For the same molecule, the antitumor activity result in [2] (L2987 tumors 250 to 800 mm^3, optimal dose of DOX) was “antitumor activity was not observed”. Further, the “activity against established RCA tumors (growth delay or regressions)” value in data set [3] (DOX alone) was “not active”. For the same molecule, the “day by which 100% of the mice were dead” value in data set [4] stood at 140 days. Besides, the “MTD of free DOX” value in data set [5] (3 injections 4 days apart) is recorded as 4 mg/kg. In [5] (rats, 4 mg/kg, 3 injections 4 days apart (MTD of free DOX)), this molecule registered a cures of 25%. In addition, the IC50 is 300 ± 200 nM in the data set with parental cell line and 400 ± 100 nM in data set [6]. The “maximum tolerated dose (MTD)” value is recorded as 4 mg/kg in data set [7] (intraperitoneally (IP)) and 8 mg/kg in [7] (intravenously (IV)). Further, the LCK is listed as 1.1 LCK in data set [8]; 1.5 in data set [9] (ADM 8 mg/kg, iv, q4dx3 (Table 16)); 1-1.8 in data set [9] (ADM 8 mg/kg, no antibody, iv, q4dx3 (55 mice)); 1.0 LCK in data set [9] (FIG. 57, optimized adriamycin (8 mg/kg)); 1.6 LCK in [9] (FIG. 58, optimized adriamycin); 1.4 in data set [10]. Besides, the LCK in data set [11] (10/405 mg/kg, ip) turned out to be 0; in data set [11] (ADM 8/0 mg/kg, iv) it was 0.4. The CR was 0% in data set [9] (ADM 8 mg/kg, iv (Table 16)); 0% in [9] (ADM 8 mg/kg, no antibody, iv); 0% in data set [10]; 0% in data set [11] (10/405 mg/kg, ip); 0% in data set [11] (ADM 8/0 mg/kg, iv). Also, the Cure in data set [9] (ADM 8 mg/kg, iv (Table 16)) was 0%; in data set [9] (ADM 8 mg/kg, no antibody, iv), 0%; in data set [10], 0%; in data set [11] (10/405 mg/kg, ip), 0%; in [11] (ADM 8/0 mg/kg, iv), 0%. Moreover, the PR is on record as 0% in [9] (ADM 8 mg/kg, iv (Table 16)); 3.6% in [9] (ADM 8 mg/kg, no antibody, iv); 0% in [10]; 0% in data set [11] (10/405 mg/kg, ip); 0% in [11] (ADM 8/0 mg/kg, iv).
